Assay results reported in publication PMC6471066, “Spiralyde A, an Antikinetoplastid Dolabellane from the Brown Alga Dictyota spiralis” (Marine Drugs, 2019).

What was measured:
[1] = test system: promastigotes of Leishmania amazonensis (MHOM/BR/77/LTB0016); experiment: Leishmanicidal capacity assay (Alamar Blue); type: cell-based; conditions: promastigote form; for IC50: Leishmania amazonensis
Description: (§1) Bioassay-guided fractionation of the crude extract yielded six dolabellanes 1–6. Their in vitro antiprotozoal activity was evaluated applying serial dilutions of the compounds, and IC50 were calculated using the Alamar Blue reagent reaction.
(§2) The activity of the crude extract, different subfractions and isolated compounds were evaluated against promastigotes of Leishmania amazonensis (MHOM/BR/77/LTB0016) and epimastigotes Trypanosoma cruzi (Y strain). Cytotoxicity assay of the active compounds was tested against the murine macrophage J774.A1 cell line (ATCC # TIB-67).
Logarithmic phase cultures of Leishmania amazonensis were used for experimental purposes, and the in vitro susceptibility assay was performed in sterilized 96-well plates. 10^6/well parasites were added to wells containing different concentration of the drug to be tested. Percentages of inhibition, 50% inhibitory concentrations (IC50) for active compounds were calculated by linear regression analysis using the Alamar Blue method.

[2] = test system: epimastigotes Trypanosoma cruzi (Y strain); experiment: Trypanocidal capacity assay (Alamar Blue); type: cell-based; conditions: epimastigote form; for IC50: 96 h
Description: as §1, §2
The activity was evaluated in vitro against epimastigote stage of Trypanosoma cruzi. Different concentrations of fractions and compounds were incubated in 96 wells plate for 96 h with a density of 10^5 parasite/well. 10% of Alamar blue was added to each well and the IC50 was calculated. All assays have been realized in triplicate.

[3] = test system: promastigote form of L. amazonensis; design: method as in PMID 22970332; conditions: promastigotes; cited from earlier work
[4] = Cytotoxicity assay (Alamar Blue); type: cell-based; conditions: mouse, J774.A1 macrophage cell line (ATCC TIB-67), murine macrophage J774.A1
Description: as §2, with “TIB-67).[…]” for “TIB-67).”

| SMILES | IC50 [1] | antikinetoplastid activity against Leishmania amazonensis (in words) [1] | IC50 ([2]; Trypanosoma cruzi) | antikinetoplastid activity against Trypanosoma cruzi (in words) [2] | IC50 [3] | CC50 at 24 h [4] | IC50 [2] |
| --- | --- | --- | --- | --- | --- | --- | --- |
| C=C(C)[C@H]1C[C@H](O)[C@]2(C)C[C@@H]3O[C@@]3(C)CC/C=C(\C)CC[C@@H]12 [compound 3, (1R,3S,4S,7E,11S,12S,14S)-3,4-Epoxy-14-hydroxy-7,18-dolabelladiene] | > 100 µM | inactive | > 100 µM | inactive | – | – | – |
| C[C@H]1/C=C/[C@@]2(C)CC[C@@H](C(C)(C)O)[C@@H]2[C@@H](O)C[C@](C)(O)/C=C/C1 [dolabelladienetriol (9), dolabelladienetriol] | – | – | – | – | 44 µM | – | – |
| C=C(C)C1CCC2(C)CC=C(C)CCC=C(C=O)C(O)CC12 (stereo not shown) [Spiralyde A (1), Spiralyde A] | 15.5 ± 0.26 µM | – | 5.62 ± 2.48 µM | – | – | 23.4 ± 5.62 µM | – |
| C=C(C)[C@H]1CC[C@]2(C)C[C@@H]3O[C@@]3(C)CC/C=C(\C)CC[C@@H]12 [compound 2, (1R,3S,4S,7E,11S,12S)-3,4-Epoxy-7,18-dolabelladiene] | 36.8 ± 5.2 µM | moderate activity | 35.3 ± 4.09 µM | moderate activity | – | 69.98 ± 0.14 µM | – |
| CCCCCCCCCCCCCCCCOP(=O)([O-])OCC[N+](C)(C)C [Miltefosine, reference compound] | – | – | – | – | – | 72.2 ± 3.06 µM | – |
| C=C(C)[C@H]1CC(=O)[C@]2(C)C[C@@H]3O[C@@]3(C)CC/C=C(\C)CC[C@@H]12 [compound 4, (1R,3S,4S,7E,11S,12S)-3,4-Epoxy-14-oxo-7,18-dolabelladiene] | > 100 µM | inactive | > 100 µM | inactive | – | – | – |
| O=C(Cn1ccnc1[N+](=O)[O-])NCc1ccccc1 [Benznidazole, reference compound] | – | – | 6.95 µM | – | – | 400 ± 4 µM | 6.94 ± 1.94 µM |
| C=C(C)C1CC(=O)C2(C)CC=C(C)CCC=C(C)CCC12 [compound 6, (1R,3Z,7E,11S,12S)-14-Oxo-3,7,18-dolabellatriene] | > 100 µM | – | > 100 µM | – | – | – | – |
| C=C(C)[C@H]1CC(=O)[C@]2(C)C/C=C(\C)CC/C=C(\C)CC[C@@H]12 [compound 5, (1R,3E,7E,11S,12S)-14-Oxo-3,7,18-dolabellatriene] | > 100 µM | – | > 100 µM | – | – | – | – |
